Source: patent publication US20090138208A1, “IMMUNOGLOBULIN G BINDING POCKET” (GE HEALTHCARE BIO-SCIENCES AB, priority 2002, published 2009)

Experiments:
[1] = system: F(ab′)2 fragment of a different specificity (kappa); test: STD NMR control with F(ab′)2 fragment of a different specificity; format: binding; settings: 1 μM protein; different variable part from Example 2
Description: The present example was performed with a F(ab′)2 fragment of a different specificity, i.e. a different variable part, from the one used in Example 2 above in order to verify that binding of one the selected compounds still occurred.
The testing was performed as described above in Example 2, but this time using 1 μM protein and using compound AB—0000860 as defined above in table 1. The results were positive, which implies that there is an interaction between AB—0000860 and at least two kappa Fab fragments of different specificities.

[2] = system: Fab fragment of lambda-type; test: STD NMR control with Fab fragment of lambda-type; format: binding; settings: tested as in Example 2 with lambda-type Fab
Description: Apart from the different Fab fragment, the testing was performed as described above in Example 2.

human Fab of κ-type = human Fab of κ-type (Homo sapiens, UniProt P01834+P01857); test: STD NMR screening (1D saturation transfer difference) for binding to antibody; parameters: key: 0 no; 1 weak; 2 strong signal; settings: 0.5 mM ligand
Description: All NMR experiments were performed at 298 K on a Bruker Avance 500 MHz spectrometer. The 1D saturation transfer difference method (STD NMR) was used as screening assay (Mayer M. and Meyer B. 1999. Characterization of Ligand Binding by Saturation Transfer Difference NMR Spectroscopy. Angew. Chem., Int. Ed. 38: 1784-1788) using several antibody concentrations in order to differentiate between compounds with different binding strength (Peng J. W., Lepre C. A., Fejzo J., Abdul-Manan N. and Moore J. M. 2001. Nuclear Magnetic Resonance-Based Approaches for Lead Generation in Drug Discovery. Methods in Enzymology. 338: 202-230). The antibody used was a human Fab of κ-type. In all cases ligands were tested one-by-one. On-resonance irradiation was set at 0 ppm and off-resonance irradiation was set at −40 ppm. Irradiation time in each scan was 2 s and 16 K data points were collected with 1024 scans in total. Compounds for testing were dissolved in DMSOd6 to a concentration of 50 mM and 5 μL of the concentrated ligand solution was added to 495 μL buffer solution. The samples thus consisted of 0.5 mM ligand, 20 mM phosphate buffer, 100 mM NaCl and […] in D2O at pD 7.5, uncorrected reading on pH-meter.
Compounds were initially tested for binding with 0.5 μM antibody. Interesting ligands were further tested with protein concentrations of 100 or 20 nM. A one-dimensional ^1H-spectrum was acquired first and subsequently a saturation transfer difference (STD) spectrum was acquired. Each analysis took 60 minutes on the spectrometer. […] The analysis was setup for automation so that several samples could be analysed over night (usually 10-15 samples/night).
As many as 46 of the virtual screening hits were tested with NMR according to the procedure described above. The results from NMR screening together with additional compound data are compiled in Table 1 below. In total 24 compounds gave a positive result in the first round with the highest antibody concentration (500 nM). These 24 compounds were subjected to a second round with an antibody concentration of 100 nM. The 4 compounds showing the strongest signal in the second round were tested for binding in a third round with 20 nM antibody. Three of the compounds in the third round gave a positive result and where thus designated as the strongest binders to the antibody out of the 46 tested compounds.

Sequence of human Fab of κ-type (P01857 with tags, fused parts or gaps, other chains not shown): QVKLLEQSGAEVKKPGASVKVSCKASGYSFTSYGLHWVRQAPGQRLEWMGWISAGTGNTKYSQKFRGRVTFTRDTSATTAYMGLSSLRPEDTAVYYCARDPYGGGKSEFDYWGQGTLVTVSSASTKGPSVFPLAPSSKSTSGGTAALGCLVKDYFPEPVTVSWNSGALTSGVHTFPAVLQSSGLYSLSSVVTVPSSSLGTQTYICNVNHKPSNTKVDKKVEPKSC

binding to F(ab′)2 fragment (STD NMR result) [1]: positive | binding to lambda-type Fab (STD NMR result) [2]: negative | NMR signal conc 3 (human Fab of κ-type; 20 nM antibody): 1 | NMR signal conc 2 (human Fab of κ-type; 100 nM antibody): 2 | NMR signal conc 1 (human Fab of κ-type; 500 nM antibody, 298 K): 2
SMILES: O=C1CN(c2ccccc2)C(=O)N1c1ccccc1 [AB_0000860, 1,3-diphenylimidazolidine-2,4-dione]
